Experimental data as given in US20120219550A1, “PHARMACEUTICAL COMBINATIONS COMPRISING A PYRIDO [4,3-D] PYRIMIDINE DERIVED HSP90-INHIBITOR AND A HER2 INHIBITOR” (NOVARTIS AG, priority 2008, published 2012).

Test system: BT-474 breast cancer xenograft
Experiment: Antitumor effect in BT-474 human breast carcinoma xenograft model in nude mice
Assay type: in vivo
Conditions: BT-474 xenograft, 21 days treatment, i.v.
Experimental: The estrogen receptor positive cell line BT-474 (ATCC, number HTB-20) which is a human breast carcinoma cell line is used. The cells are grown in DMEM high glucose (4.5 g/l) supplemented with 10% FCS, […] L-glutamine and 1% sodium pyruvate.
In preparation for cell inoculation, each mouse is subcutaneously implanted on the upper dorsal side with a 17β-Estradiol pellet (25 microgram/day; 90 day release) using a trocar needle. BT-474 cells (5×10̂6) are injected in 200 microliter Matrigel:HBSS (1:1 vol) (BD Matrigel™ Basement Membrane Matrix). The injection site is subcutaneously in the right flank. Treatment with compound I is initiated when the average tumor volume reached approximately 100 mm^3 Tumor growth is monitored at regular intervals. The xenograft tumor sizes is measured manually with calipers and the tumor volume is estimated using the formula: […], where width (W) and length (L) are the two largest diameters. Results are presented as mean±SEM. Tumor data are analyzed by ANOVA with post hoc Dunnet's test for comparison of treatment versus control group.
As a measure of efficacy the % T/C value is calculated at the end of the experiment according to:
(Δtumor volumetreated/Δtumor volumecontrol)*100
Where Δtumor volumes represent the mean tumor volume on the evaluation day minus the mean tumor volume at the start of the experiment.
Tumor regression is presented as the relative absolute change in tumor volume from the start to the end of the experiment (−(Tumor volumeevaluation day−Tumor volumestart day)/Tumor volumestart day*100).
The antitumor effect of compound I and trastazumab is evaluated in the BT-474 xenograft model (FIG. 1). The treatment period is 21 days and each treatment group consists of 8 tumor bearing animals. The tumor sizes in the treatment groups are compared to those of the vehicle treated groups and the effect is expressed as % T/C or regression when applicable. […] Compound I is administered i.v. once per week at a dose of 15 mg/kg.

## CCNC(=O)c1noc(-c2cc(C(C)C)c(O)cc2O)c1-c1ccc(CN2CCOCC2)cc1 [Compound I, 5-(2,4-Dihydroxy-5-isopropyl-phenyl)-4-(4-morpholin-4-ylmethyl-phenyl)-isoxazole-3-carboxylic acid ethylamide]
  antitumor effect in words (comparison with vehicle or single agents): no statistically significant difference from vehicle treated animals
Trastuzumab 5 mg/kg 2 qw, Compound I 15 mg/kg qw, end of experiment
  T/C (%): 96%
Trastuzumab 5 mg/kg twice per week, Compound I 15 mg/kg qw
  reduction of tumor burden: 4%
Mean ± SEM, Trastuzumab 5 mg/kg 2 qw, Compound I 15 mg/kg qw
  ΔTumor volume (mm^3): 929 ± 152 mm^3
